Results from patent US20230151025A1, “SUBSTITUTED THIAZOLOPYRIDINES, SALTS THEREOF AND THEIR USE AS HERBICIDALLY ACTIVE SUBSTANCES” (Bayer Aktiengesellschaft, priority 2020, published 2023).

Legend:
Assay type in all cases: in vivo
[1] = tested on: Alopecurus myosuroides (ALOMY); test: Herbicidal pre-emergence action (C), 320 g/ha; details: ca. 3 weeks
Summary of the method: (§1)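 Pre-emergence greenhouse test: visual damage rating at about 3 weeks relative to untreated plants, 100% meaning death and 0% no effect. Compounds, as wettable powders or emulsifiable concentrates with 0.5% additive, were applied at 320 g/ha (600 l water/ha) onto soil covering seeds sown in sandy loam.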

[2] = tested on: Abutilon theophrasti (ABUTH); test: Herbicidal pre-emergence action (C), 320 g/ha; details: ca. 3 weeks
Summary of the method: as §1

[3] = tested on: Amaranthus retroflexus (AMARE); test: Herbicidal pre-emergence action (C), 320 g/ha; details: ca. 3 weeks
Summary of the method: as §1

Setaria viridis (SETVI) [4] = test: Herbicidal pre-emergence action (C), 320 g/ha; details: ca. 3 weeks
Summary of the method: as §1

Veronica persica (VERPE) [5] = test: Herbicidal pre-emergence action (C), 320 g/ha; details: ca. 3 weeks
Summary of the method: as §1

Lolium rigidum (LOLRI) [6] = test: Herbicidal pre-emergence action (C), 320 g/ha; details: ca. 3 weeks
Summary of the method: as §1

Viola tricolor (VIOTR) [7] = test: Herbicidal pre-emergence action (C), 320 g/ha; details: ca. 3 weeks
Summary of the method: as §1

[8] = tested on: Polygonum convolvulus (POLCO); test: Herbicidal pre-emergence action (C), 320 g/ha; details: ca. 3 weeks
Summary of the method: as §1

[9] = tested on: Matricaria inodora (MATIN); test: Herbicidal pre-emergence action (C), 320 g/ha; details: ca. 3 weeks
Summary of the method: as §1

[10] = tested on: Echinochloa crus-galli (ECHCG); test: Herbicidal pre-emergence action (C), 320 g/ha; details: ca. 3 weeks
Summary of the method: as §1

Avena fatua [11] = test: Herbicidal post-emergence action (D), 320 g/ha; details: ca. 3 weeks
Excerpt: Seeds of mono- and dicotyledonous weed plants and crop plants were sown, in plastic or organic planting pots, in sandy loam, covered with soil and grown in a greenhouse under controlled growth conditions. 2 to 3 weeks after sowing, the test plants were sprayed in the single-leaf stage. The compounds according to the invention, formulated in form of wettable powders (WP) or as emulsifiable concentrates (EC), were sprayed onto the green plant parts as aqueous suspension or emulsion, with the addition of 0.5% of an additive, at an application rate of 600 l of water/ha (converted). The test plants were placed in the greenhouse for ca. 3 weeks under optimum growth conditions, and then the effect of the preparations was assessed visually in comparison with untreated controls (herbicidal effect in percent (%): 100% effect=plants have died off, 0% effect=as control plants).
Tables D1 to D13 below show the effects of selected compounds of the general formula (I) according to table 1 on various harmful plants and an application rate corresponding to 320 g/ha obtained by the experimental procedure mentioned above.

[12] = tested on: Alopecurus myosuroides (ALOMY); test: Herbicidal post-emergence action (D), 320 g/ha; details: ca. 3 weeks
Summary of the method: (§2)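 Visual % herbicidal effect vs untreated controls (100% = dead, 0% = like control), rated ca. 3 weeks after post-emergence spray. Plants treated at single-leaf stage, 2 to 3 weeks after sowing in sandy loam; aqueous WP/EC spray, 0.5% additive, 600 l water/ha.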

[13] = tested on: Abutilon theophrasti (ABUTH); test: Herbicidal post-emergence action (D), 320 g/ha; details: ca. 3 weeks
Summary of the method: as §2

Setaria viridis (SETVI) [14] = test: Herbicidal post-emergence action (D), 320 g/ha; details: ca. 3 weeks
Summary of the method: as §2

Veronica persica (VERPE) [15] = test: Herbicidal post-emergence action (D), 320 g/ha; details: ca. 3 weeks
Summary of the method: as §2

Lolium rigidum (LOLRI) [16] = test: Herbicidal post-emergence action (D), 320 g/ha; details: ca. 3 weeks
Summary of the method: as §2

Viola tricolor (VIOTR) [17] = test: Herbicidal post-emergence action (D), 320 g/ha; details: ca. 3 weeks
Summary of the method: as §2

[18] = tested on: Polygonum convolvulus (POLCO); test: Herbicidal post-emergence action (D), 320 g/ha; details: ca. 3 weeks
Summary of the method: as §2

[19] = tested on: Echinochloa crus-galli (ECHCG); test: Herbicidal post-emergence action (D), 320 g/ha; details: ca. 3 weeks
Summary of the method: as §2

Avena fatua [20] = test: Herbicidal pre-emergence action (C), 320 g/ha; details: ca. 3 weeks
Excerpt: Seeds of mono- and dicotyledonous weed plants and crop plants were sown, in plastic or organic planting pots, in sandy loam and covered with soil. The compounds according to the invention, formulated in the form of wettable powders (WP) or as emulsifiable concentrates (EC), were applied to the surface of the covering soil as aqueous suspension or emulsion, with the addition of 0.5% of an additive, at an application rate of 600 l of water/ha (converted).
Following treatment, the pots were placed in a greenhouse and kept under optimum growth conditions for the test plants. The visual grading of the damage to the test plants was carried out after ca. 3 weeks in comparison to untreated controls (herbicidal effect in percent (%): 100% effect=plants have died off, 0% effect=as control plants).
Tables C1 to C13 below show the effects of selected compounds of the general formula (I) according to table 1 on various harmful plants and an application rate corresponding to 320 g/ha obtained by the experimental procedure mentioned above.

[21] = tested on: Alopecurus myosuroides (ALOMY); test: Herbicidal pre-emergence action (A), 1280 g/ha; details: visual grading after ca. 3 weeks vs untreated controls, 100% = plants have died off, 0% = as control plants
Summary of the method: (§3)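 Seeds were sown in sandy loam pots (one mono- and one dicot weed per pot) and covered with soil; WP or EC formulations were applied to the soil surface as aqueous suspension/emulsion with 0.5% additive at 600 l water/ha. Damage was scored visually after ca. 3 weeks versus untreated controls (0% = control, 100% = dead).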

[22] = tested on: Kochia scoparia (KCHSC; Bassia scoparia); test: Herbicidal pre-emergence action (A), 1280 g/ha; details: visual grading after ca. 3 weeks vs untreated controls
Summary of the method: as §3

Poa annua (POAAN) [23] = test: Herbicidal pre-emergence action (A), 1280 g/ha; details: visual grading after ca. 3 weeks vs untreated controls, 100% = plants have died off, 0% = as control plants
Summary of the method: as §3

Stellaria media (STEME) [24] = test: Herbicidal pre-emergence action (A), 1280 g/ha; details: visual grading after ca. 3 weeks vs untreated controls
Summary of the method: as §3

Setaria viridis (SETVI) [25] = test: Herbicidal pre-emergence action (A), 1280 g/ha; details: visual grading after ca. 3 weeks vs untreated controls
Summary of the method: as §3

Veronica persica (VERPE) [26] = test: Herbicidal pre-emergence action (A), 1280 g/ha; details: visual grading after ca. 3 weeks vs untreated controls
Summary of the method: as §3

Lolium rigidum (LOLRI) [27] = test: Herbicidal pre-emergence action (A), 1280 g/ha; details: visual grading after ca. 3 weeks vs untreated controls, 100% = plants have died off, 0% = as control plants
Summary of the method: as §3

[28] = tested on: Matricaria inodora (MATIN); test: Herbicidal pre-emergence action (A), 1280 g/ha; details: visual grading after ca. 3 weeks vs untreated controls
Summary of the method: as §3

[29] = tested on: Echinochloa crus-galli (ECHCG); test: Herbicidal pre-emergence action (A), 1280 g/ha; details: visual grading after ca. 3 weeks vs untreated controls, 100% = plants have died off, 0% = as control plants
Summary of the method: as §3

[30] = tested on: Alopecurus myosuroides (ALOMY); test: Herbicidal post-emergence action (B), 1280 g/ha; details: rated visually after about 3 weeks vs untreated controls
Summary of the method: (§4)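 Post-emergence spray, one-leaf stage; WP/EC formulation, aqueous, 0.5% additive, 600 L/ha water. Sandy loam, greenhouse, doubly sown pots. Visual % rating vs untreated control at ~3 weeks (100% = dead).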

[31] = tested on: Kochia scoparia (KCHSC; Bassia scoparia); test: Herbicidal post-emergence action (B), 1280 g/ha
Summary of the method: as §4

Poa annua (POAAN) [32] = test: Herbicidal post-emergence action (B), 1280 g/ha; details: rated visually after about 3 weeks vs untreated controls
Summary of the method: as §4

[33] = tested on: Abutilon theophrasti (ABUTH); test: Herbicidal post-emergence action (B), 1280 g/ha; details: rated visually after about 3 weeks vs untreated controls
Summary of the method: as §4

[34] = tested on: Amaranthus retroflexus (AMARE); test: Herbicidal post-emergence action (B), 1280 g/ha; details: rated visually after about 3 weeks vs untreated controls
Summary of the method: as §4

Stellaria media (STEME) [35] = test: Herbicidal post-emergence action (B), 1280 g/ha
Summary of the method: as §4

Veronica persica (VERPE) [36] = test: Herbicidal post-emergence action (B), 1280 g/ha
Summary of the method: as §4

[37] = tested on: Echinochloa crus-galli (ECHCG); test: Herbicidal post-emergence action (B), 1280 g/ha; details: rated visually after about 3 weeks vs untreated controls
Summary of the method: as §4

**Q.** What does the source list for `Fc1cccc(F)c1-c1nc2ncsc2cc1Cl` [Example I-087]?
**A.** herbicidal effect ALOMY [1]: 100%; herbicidal effect ABUTH [2]: 90%; herbicidal effect AMARE [3]: 80%; herbicidal effect SETVI (Setaria viridis (SETVI) [4]): 100%; herbicidal effect VERPE (Veronica persica (VERPE) [5]): 90%; herbicidal effect LOLRI (Lolium rigidum (LOLRI) [6]): 100%; herbicidal effect VIOTR (Viola tricolor (VIOTR) [7]): 80%; herbicidal effect POLCO [8]: 90%; herbicidal effect MATIN [9]: 90%; herbicidal effect ECHCG [10]: 100%; herbicidal effect AVEFA (Avena fatua [11]): 80%; herbicidal effect ALOMY [12]: 90%; herbicidal effect ABUTH [13]: 80%; herbicidal effect SETVI (Setaria viridis (SETVI) [14]): 90%; herbicidal effect VERPE (Veronica persica (VERPE) [15]): 90%; herbicidal effect LOLRI (Lolium rigidum (LOLRI) [16]): 80%; herbicidal effect VIOTR (Viola tricolor (VIOTR) [17]): 80%; herbicidal effect POLCO [18]: 90%; herbicidal effect ECHCG [19]: 90%; herbicidal effect AVEFA (Avena fatua [20]): 80%

**Q.** What does the source list for `Cc1ccsc1-c1nc2ncsc2cc1Cl` [Example I-192]?
**A.** herbicidal effect ALOMY [1]: 100%; herbicidal effect AMARE [3]: 100%; herbicidal effect SETVI (Setaria viridis (SETVI) [4]): 100%; herbicidal effect VERPE (Veronica persica (VERPE) [5]): 90%; herbicidal effect LOLRI (Lolium rigidum (LOLRI) [6]): 100%; herbicidal effect ECHCG [10]: 100%; ALOMY, herbicidal effect in percent (%) [21]: 100%; herbicidal effect KCHSC [22]: 100%; POAAN, herbicidal effect in percent (%) (Poa annua (POAAN) [23]): 100%; herbicidal effect STEME (Stellaria media (STEME) [24]): 100%; herbicidal effect SETVI (Setaria viridis (SETVI) [25]): 100%; herbicidal effect VERPE (Veronica persica (VERPE) [26]): 90%; LOLRI, herbicidal effect in percent (%) (Lolium rigidum (LOLRI) [27]): 100%; herbicidal effect MATIN [28]: 100%; ECHCG, herbicidal effect in percent (%) [29]: 100%; herbicidal effect AVEFA (Avena fatua [11]): 80%; herbicidal effect ALOMY [12]: 90%; herbicidal effect SETVI (Setaria viridis (SETVI) [14]): 80%; herbicidal effect VERPE (Veronica persica (VERPE) [15]): 80%; herbicidal effect ECHCG [19]: 100%; herbicidal activity ALOMY [30]: 100%; herbicidal effect KCHSC [31]: 90%; herbicidal activity POAAN (Poa annua (POAAN) [32]): 90%; herbicidal activity ABUTH [33]: 100%; herbicidal activity AMARE [34]: 100%; herbicidal effect STEME (Stellaria media (STEME) [35]): 90%; herbicidal effect VERPE (Veronica persica (VERPE) [36]): 100%; herbicidal activity ECHCG [37]: 100%
